Drawing on patent US20130184294A1, “Pyrimidones for Treatment of Potassium Channel Related Diseases” (Pfizer Inc., priority 2010, published 2013), this text covers EC50 for 15 molecules.

As usually defined, the EC50 is the concentration needed to bring the measured effect to its halfway point.

In this assay the target is T1, Kv7.2/7.3 channels (Homo sapiens, UniProt O43525+O43526).
T1 construct: The entire construct for Kv7.2 and Kv7.3 was subcloned into the pIRESneo3 and pIREShygro3 expression vectors; expressed in transfected cells
Kind of assay: Kv7.2/3 channel opening activity, IonWorks planar patch-clamp of K-current at 0 mV. The class given is cell-based. The following applies: CHO-K1 cells expressing human Kv7.2/7.3; IonWorks Quattro, step from -80 mV to 0 mV, 7-point concentration curves. The text has this: Biological Assay for Kv7.2/3 Channel Opening Activity
Human Kv7.2 and Kv7.3 clones were obtained from GeneDynamics (Eugene, Oreg.). Both human Kv7.2/pIRESneo3 and human Kv7.3/pIREShygro3 expression vectors were constructed using a combination of fragments amplified from a human hippocampus library (extending from a NheI site near the 5′ end through the stop codon) and synthetic oligonucleotides (extending from the start codon to the BamHI site). The entire construct for Kv7.2 and Kv7.3 was subcloned into the pIRESneo3 and pIREShygro3 expression vectors (Clonetech, Mountain View, Calif.), respectively, using NheI/BamHI sites introduced on either side of the start and stop codons. The construct was sequenced in its entirety to make sure that no mutations were introduced during the amplification and cloning process. Adapted from Wickendon, A D et al., Mol Pharmacol 58(3):591-600, 2000.
Chinese hamster ovary (CHO-K1) cells were transfected with human-Kv7.2 in a pIRESneo3 plasmid DNA vector (Clonetech, Mountain View, Calif.) and the h-Kv7.3 subunit in pIREShygro3 plasmid DNA vector using Lipofectamine-2000™ reagent (InVitrogen, San Diego, Calif.), according to the manufacturers instructions. Cells stably expressing the human Kv7.2 and Kv7.3 constructs were identified by their resistance to 400 ug/ml, geneticin (Gibco #10131-027) and 400 ug/ml, hygromycin-B (Invitrogen #10687-010). Clones were screened for functional expression using the whole-cell, voltage-clamp technique.
To determine if compounds can enhance voltage-dependent K-current in Kv7.2/7.3 channel containing CHO-K1 cells. Planar patch-clamp is used on IonWorks to functionally determine percent enhancement of Kv7.2/7.3-current at 0 mV (compared to retigabine) and potency (EC50) of compounds. Intrinsic activity and/or potency may be important in determining in vivo pharmacological efficacy of the compounds.
Serial dilutions were made in DMSO on an Apricot Personal Pipettor. Compounds were then diluted in external buffer on a 384 well assay plate (final DMSO concentration=0.3%).
Cells used in this assay were CHO-K1 expressing Kv7.2/7.3 channels. Cells were maintained in growth media containing: F-12 (Gibco #11765-054), 10% FBS (Invitrogen 16140-071), 1:100 Glutamax (Gibco #35050-061), 1:100 Penicillin/streptomycin (Gibco #15140-122), 400 ug/ml Geneticin (Gibco #10131-027), 400 ug/ml Hygromycin-B (Invitrogen #10687-010). Cells were grown in T-150 flasks to a confluence of approx. 80%. External recording buffer contained (in mM): NaCl (137), KCl (4), MgCl2 (1), CaCl2 (1.8), HEPES (10), and glucose (10), pH was adjusted to 7.3 with NaOH and osmolarity was adjusted to 300-305 mOsM with sucrose, if necessary. Internal buffer contained (in mM): Kgluconate (120), KCl (20), NaCl (5), MgCl2 (1), CaCl2 (2), HEPES (10), KF (2), and Na2ATP (2). Na2ATP was added to internal buffer right before use and pH was adjusted to 7.2 with KOH. Osmolarity of internal buffer was adjusted to 290-295 mOsM.
Cells were washed 1× with Ca/Mg free PBS and then removed from the plates with a 50:50 mixture of versene (Gibco 15040): 0.25% trypsin-EDTA (Gibco 25200) (4 min), triturated, centrifuged at ˜1000 rpm for 5 min, and resuspended at ˜2.5 million cells/ml in external buffer for recording on IonWorks. Potassium current measurements were made using an IonWorks Quattro instrument (MDS Corp.) using PatchPlate PPC substrates with 64 apertures per well. IonWorks calculated leak current was digitally subtracted from the total current acquired. Potassium current was elicited by stepping from −80 mV to 0 mV (2 sec) was measured in the absence and presence of increasing concentrations (½ log) of unknown compound (7-point concentration curves). Retigabine was run as a positive control and comparator on each PatchPlate PPC. Maximum increase in K current was determined by subtracting the current elicited in external buffer alone wells from the current elicited in wells with compound treatment (both at 0 mV). […]
In general terms: In patch-clamp work, channel activity is measured electrically.
With `Cc1cccn2c(=O)c(NC(=O)CC(C)(C)C)c(NC(C)C3CC3)nc12` (single isomer, unassigned) [Example 2a, N-{2-[(1-Cyclopropylethyl)amino]-9-methyl-4-oxo-4H-pyrido[1,2-a]pyrimidin-3-yl}-3,3-dimethylbutanamide, (+)-enantiomer], the EC50 was found to be 227 nM.
Then `CC[C@@H](C)Nc1nc2n(c(=O)c1NC(=O)CC(C)(C)C)CCCC2C` (single isomer, unassigned; diastereomer 2) [Example 11b], with 942 nM; and `CC(C)Nc1nc2n(c(=O)c1NC(=O)CC(C)(C)C)CCCC2C(F)(F)F` (single isomer, unassigned) [Example 8b, 3,3-Dimethyl-N-[4-oxo-2-(propan-2-ylamino)-9-(trifluoromethyl)-6,7,8,9-tetrahydro-4H-pyrido[1,2-a]pyrimidin-3-yl]butanamide, (+) enantiomer], with 412 nM; and `CC[C@@H](C)Nc1nc2c(C)cccn2c(=O)c1NC(=O)CC(C)(C)C` [Example 1, N-{2-[(2R)-Butan-2-ylamino]-9-methyl-4-oxo-4H-pyrido[1,2-a]pyrimidin-3-yl}-3,3-dimethylbutanamide], with 168 nM.
Then `CC(C)(C)CC(=O)Nc1c(C2CC2)nc2n(c1=O)CCCC2C(F)(F)F` (single isomer, unassigned) [Example 5b, N-[2-Cyclopropyl-4-oxo-9-(trifluoromethyl)-6,7,8,9-tetrahydro-4H-pyrido[1,2-a]pyrimidin-3-yl]-3,3-dimethylbutanamide, (+)-enantiomer], with 298 nM.
`CC(C)Nc1nc2c(C(F)(F)F)cccn2c(=O)c1NC(=O)CC(C)(C)C` [Example 7, 3,3-Dimethyl-N-[4-oxo-2-(propan-2-ylamino)-9-(trifluoromethyl)-4H-pyrido[1,2-a]pyrimidin-3-yl]butanamide]: the EC50 is 119 nM.
To `Cc1cccn2c(=O)c(NC(=O)CC(C)(C)C)c(NC(C)C3CC3)nc12` (single isomer, unassigned) [Example 2b, N-{2-[(1-Cyclopropylethyl)amino]-9-methyl-4-oxo-4H-pyrido[1,2-a]pyrimidin-3-yl}-3,3-dimethylbutanamide, (−)-enantiomer] belongs 128 nM; to `CC(C)Nc1nc2n(c(=O)c1NC(=O)CC(C)(C)C)CCCC2C(F)(F)F` (single isomer, unassigned) [Example 8a, 3,3-Dimethyl-N-[4-oxo-2-(propan-2-ylamino)-9-(trifluoromethyl)-6,7,8,9-tetrahydro-4H-pyrido[1,2-a]pyrimidin-3-yl]butanamide, (−) enantiomer], 382 nM.
Then `CC(C)(C)CC(=O)Nc1c(NC2CCC2)nc2c(C(F)(F)F)cccn2c1=O` [Example 6, N-[2-(Cyclobutylamino)-4-oxo-9-(trifluoromethyl)-4H-pyrido[1,2-a]pyrimidin-3-yl]-3,3-dimethylbutanamide], with 91.5 nM; and `CC(C)Nc1nc2c(OC(C)(F)F)cccn2c(=O)c1NC(=O)CC(C)(C)C` [Example 9, N-[9-(1,1-Difluoroethoxy)-4-oxo-2-(propan-2-ylamino)-4H-pyrido[1,2-a]pyrimidin-3-yl]-3,3-dimethylbutanamide], with 369 nM.
Then `CC(C)(C)CC(=O)Nc1c(C2CC2)nc2c(OC(C)(F)F)cccn2c1=O` [Example 10, N-[2-Cyclopropyl-9-(1,1-difluoroethoxy)-4-oxo-4H-pyrido[1,2-a]pyrimidin-3-yl]-3,3-dimethylbutanamide], with 306 nM.
`CC(C)(C)CC(=O)Nc1c(C2CC2)nc2c(C(F)(F)F)cccn2c1=O` [Example 4, N-[2-Cyclopropyl-4-oxo-9-(trifluoromethyl)-4H-pyrido[1,2-a]pyrimidin-3-yl]-3,3-dimethylbutanamide]: the EC50 turned out to be 137 nM.
On to `CC(C)(C)CC(=O)Nc1c(C2CC2)nc2n(c1=O)CCCC2C(F)(F)F` (single isomer, unassigned) [Example 5a, N-[2-Cyclopropyl-4-oxo-9-(trifluoromethyl)-6,7,8,9-tetrahydro-4H-pyrido[1,2-a]pyrimidin-3-yl]-3,3-dimethylbutanamide, (−)-enantiomer], for which the half-maximal effective concentration (EC50) came to 1240 nM.
Consider `Cc1cccn2c(=O)c(NC(=O)CC(C)(C)C)c(NC(C)C)nc12` [Example 3, 3,3-Dimethyl-N-[9-methyl-4-oxo-2-(propan-2-ylamino)-4H-pyrido[1,2-a]pyrimidin-3-yl]butanamide], for which the EC50 is 450 nM.
In the case of `CC[C@@H](C)Nc1nc2n(c(=O)c1NC(=O)CC(C)(C)C)CCCC2C` (single isomer, unassigned; diastereomer 1) [Example 11a], the concentration for a half-maximal effect (EC50) turned out to be 307 nM.
